Here are results for six compounds from US5639765A, “Guanidinoalkyl glycine β-amino acids useful for inhibiting bone loss” (G. D. Searle & Co., priority 1995, dated 1997).

Structures can show the parent of a compound that is named as a salt.

Assay [1] concerns the target T1, Human vitronectin receptor (αv β3) (Homo sapiens, UniProt P05106+P06756).
T1 construct: purified from human placenta; from tissue; host or cells: human placenta
The assay can be described thus: Solid Phase Receptor Assay, purified αv β3 (vitronectin receptor) competition with biotinylated vitronectin. The format is binding. The note with it: 1 nM biotinylated vitronectin, 2 h competition, room temperature, R = H, read-out: VnR/IC50. The method, then:
Human vitronectin receptor(αv β3) was purified from human placenta as previously described [Pytela et al., Methods in Enzymology, 144:475-489 (1987)]. Human vitronectin was purified from fresh frozen plasma as previously described [Yatohgo et al., Cell Structure and Function, 13:281-292 (1988)]. Biotinylated human vitronectin was prepared by coupling NHS-biotin from Pierce Chemical Company (Rockford, Ill.) to purified vitronectin as previously described [Charo et al., J. Biol. Chem., 266(3):1415-1421 (1991)]. Assay buffer, OPD substrate tablets, and RIA grade BSA were obtained from Sigma (St. Louis, Mo.). Anti-biotin antibody was obtained from Calbiochem (La Jolla, Calif.). GRGDSP peptide was purchased from Bachem (Torrance, Calif.). Linbro microtiter plates were obtained from Flow Labs (McLean, Va.). ADP reagent was obtained from Sigma (St. Louis, Mo.).
This assay was essentially the same as previously reported [Niiya et al., Blood, 70:475-483 (1987)]. The purified human vitronectin receptor (αv β3) was diluted from stock solutions to 1.0 μg/mL in Tris-buffered saline containing 1.0 mM Ca^++, Mg^++, and Mn^++, pH 7.4 (TBS^+++). The diluted receptor was immediately transferred to Linbro microtiter plates at 100 μL/well (100 ng receptor/well). The plates were sealed and incubated overnight at 4° C. to allow the receptor to bind to the wells. All remaining steps were at room temperature. The assay plates were emptied and 200 μL of 1% RIA grade BSA in TBS^+++ (TBS^+++ /BSA) were added to block exposed plastic surfaces. Following a 2 hour incubation, the assay plates were washed with TBS^+++ using a 96 well plate washer. Logarithmic serial dilution of the test compound and controls were made starting at a stock concentration of 2 mM and using 2 nM biotinylated vitronectin in TBS^+++ /BSA as the diluent. This premixing of labeled ligand with test (or control) ligand, and subsequent transfer of 50 μL aliquots to the assay plate was carried out with a CETUS Propette robot; the final concentration of the labeled ligand was 1 nM and the highest concentration of test compound was 1.0×10^-4 M. The competition occurred for two hours after which all wells were washed with a plate washer as before. Affinity purified horseradish peroxidase labeled goat anti-biotin antibody was diluted 1:3000 in TBS^+++ /BSA and 125 μL were added to each well. After 30 minutes, the plates were washed and incubated with OPD/H2 O2 substrate in 100 mM/L Citrate buffer, pH 5.0. The plate was read with a microtiter plate reader at a wavelength of 450 nm and when the maximum-binding control wells reached an absorbance of about 1.0, the final A450 were recorded for analysis. The data were analyzed using a macro written for use with the EXCEL™ spreadsheet program. The mean, standard deviation, and % CV were determined for duplicate concentrations. The mean A450 values were normalized to the mean of four maximum-binding controls (no competitor added)(B-MAX). The normalized values were subjected to a four parameter curve fit algorithm [Rodbard et al., Int. Atomic Energy.Agency, Vienna, pp 469 (1977)], plotted on a semi-log scale, and the computed IC50 and corresponding R^2 was reported. GRGDSP, a peptide fragment of fibrinogen, was included on each plate as a positive control.

The subject of assay [2] is osteoclastic activity. The note with it: cited from earlier work.
Assay [3] deals with osteoclastic activity. Conditions: cited from earlier work. The source holds these as a separate data set.

As to `N=C(N)NCC(CC(=O)NCC(=O)NC(CC(=O)O)c1cccnc1)c1ccccc1` (racemic) [Example 6, (±) β-[[2-[[4-[(aminoiminomethyl, amino]-1-oxo-3-phenylbutyl]amino]-1-oxoethyl]amino]-3-pyridinepropanoic acid, bistrifluoroacetate salt], the IC50 in assay [1] came out at 31.6 nM. Regarding `N=C(N)NCCCC(=O)NCC(=O)NC(CC(=O)O)c1cccnc1` (racemic) [Example 3, (±) β-[[2-[[4-[(aminoiminomethyl)amino]-1-oxobutyl]amino]-1-oxoethyl]amino]-3-pyridinepropanoic acid, bistrifluoroacetate salt], the IC50 in assay [1] was 23.1 nM. For `N=C(N)NCCCC(=O)NCCC(=O)NC(CC(=O)O)c1cccnc1` (racemic) [Example 5, (±) β-[[3-[[4-[(aminoiminomethyl)amino]-1-oxobutyl]amino]-1-oxopropyl]amino]-3-pyridinepropanoic acid, bistrifluoroacetate salt], the IC50 in assay [1] was 706 nM. Turning to `N=C(N)NCCCCCC(=O)NCC(=O)NC(CC(=O)O)c1cccnc1` (racemic) [Example 4, (±) β-[[2-[[6-[(aminoiminomethyl)amino]-1-oxohexyl]amino]-1-oxoethyl]amino]-3-pyridinepropanoic acid, bistrifluoroacetate salt], in assay [1], the IC50 came to 460 nM. Turning to `N=C(N)NCCCCC(=O)NCC(=O)NC(CC(=O)O)c1cccnc1` (stereo not drawn) [Example 1, β-[[2-[[5-[(aminoiminomethyl]amino]-1-oxopentyl]amino]-1-oxoethyl]amino]-3-pyridinepropanoic acid, bistrifluoroacetate salt], the IC50 in assay [1] amounted to 9.4 nM. For the compound echistatin, the “inhibition of osteoclastic activity in vitro” value in the assay with osteoclastic activity [2] was “potent inhibitors”. Besides, the “inhibition of osteoclastic activity in vivo” value with osteoclastic activity [3] is recorded as “potent inhibitors”.
